Measured values as given in PMC3216299 (Bioorganic & medicinal chemistry, 2011).

Columns and labels:
tubulin = experiment: Tubulin polymerization inhibition; format: biochemical, mammalian; details: 100 μM
Mtb H37Rv = Mtb H37Rv growth inhibition; format: cell-based, Mycobacterium tuberculosis

| SMILES | Tubulin Polymerization inhibition (tubulin) [% inhibition 100 μM] | IC90 (H37Rv) fold less active than lead compound 2 (Mtb H37Rv) [fold] | IC90 (Mtb H37Rv; Mycobacterium tuberculosis, H37RV, read-out: Mtb H37Rv IC90, extrapolated from 10 point dose response curve) [µM] |
| --- | --- | --- | --- |
| CCOC(=O)Nc1nc(NC(C)CCCN(CC)CC)c2nc(-c3ccccc3)c(-c3ccccc3)nc2n1 (centres unmarked) [Compound 2, reference compound] | 24 | – | – |
| CCOC(=O)Nc1cc(NCCCCN(CC)CC)c2nc(-c3ccccc3)c(-c3ccccc3)nc2n1 [Compound 17, Ethyl (8-((4-(diethylamino)butyl)amino)-2,3-diphenylpyrido[2,3-b]pyrazin-6-yl)carbamate] | 40 | – | – |
| CCOC(=O)Nc1nc(NC(C)CCCN(CC)CC)c2c(n1)SC(c1ccccc1)C(c1ccccc1)=N2 (centres unmarked) [Compound 37, Ethyl (4-((5-(diethylamino)pentan-2-yl)amino)-6,7-diphenyl-7H-pyrimido[4,5-b][1,4]thiazin-2-yl) carbamate] | – | 10 | – |
| CCOC(=O)Nc1nc(NCCCCN(CC)CC)c2c(n1)SC(c1ccccc1)C(c1ccccc1)=N2 (centres unmarked) [Compound 38, Ethyl (4-((4-(diethylamino)butyl)amino)-6,7-diphenyl-7H-pyrimido[4,5-b][1,4]thiazin-2-yl)carbamate] | – | 10 | 18.5 |
